Experimental data published in patent US4314028A, “Fermentation process for producing tallysomycin compounds” (priority 1980, dated 1982).

How the values were obtained:
[1] = tested on: Aspergillus fumigatus IAM 2593; assay: MIC, two-fold agar dilution method; type: cell-based; settings: Sabouraud agar
Description: (§1) The minimum inhibitory concentrations (MIC) of the semibiosynthetic tallysomycin derivatives of the present invention were determined against fungi and gram-positive, gram-negative and acid-fast bacteria by the two-fold agar dilution method. Nutrient agar was used for bacteria and Sabouraud agar for fungi. The results are shown in the table below comparatively with tallysomycin A and B.

[2] = tested on: Bacillus subtilis PCI 219; assay: MIC, two-fold agar dilution method; type: cell-based; settings: nutrient agar
Description: as §1

[3] = tested on: Candida albicans IAM 4888; assay: MIC, two-fold agar dilution method; type: cell-based; settings: Sabouraud agar
Description: as §1

Escherichia coli NIHJ = assay: MIC, two-fold agar dilution method; type: cell-based; settings: nutrient agar
Description: as §1

Mycobacterium 607 = assay: MIC, two-fold agar dilution method; type: cell-based; settings: nutrient agar
Description: as §1

Proteus mirabilis A9554 = assay: MIC, two-fold agar dilution method; type: cell-based; settings: nutrient agar
Description: as §1

Sarcina lutea PCI1001 = assay: MIC, two-fold agar dilution method; type: cell-based; settings: nutrient agar
Description: as §1

[4] = tested on: Staphylococcus aureus Smith; assay: MIC, two-fold agar dilution method; type: cell-based; settings: nutrient agar
Description: as §1

[5] = tested on: Mycobacterium smegmatis strain M6-3; assay: Relative antibacterial potency, paper-disc agar diffusion method; type: cell-based; settings: relative to tallysomycin A standard=1000 mcg/mg
Description: The relative antibacterial potencies (tallysomycin A standard=1000 mcg/mg) of the tallysomycin derivatives were determined by the paper-disc agar diffusion method using Mycobacterium smegmatis strain M6-3 as the assay organism.

[6] = tested on: lysogenic bacterium E. coli W1709 (λ); assay: Prophage induction of lysogenic bacterium (ILB activity); type: cell-based; settings: t/c ratio of plaque counts greater than 3.0
Description: The activity of prophage induction of lysogenic bacterium E. coli W1709 (λ) was determined according to the method disclosed by Lein et al. in Nature 196: 783-784 (1962). The plaque count was made on the agar plate containing test compound (t) and control plate (c). A t/c ratio of the plaque counts of greater than 3.0 was defined to be a significant level and lysogenic induction activity (ILB activity) was expressed by the minimum inducible concentration of the test compound.

[7] = tested on: Lymphocytic leukemia P388; assay: animal or person; type: in vivo, BDF1 mice; settings: copper-chelated form unless otherwise stated; for Antitumor activity P388 (ED125): ip, once daily 9 days, dose giving T/C survival of 125%; for Antitumor therapeutic index P388: single dose LD50/ED125
From the text: (§2) The antitumor activity of the tallysomycin derivatives was examined in four experimental tumor systems in mice. Lymphocytic leukemia P388 and Lewis lung carcinoma were implanted intraperitoneally into BDF1 mice of either sex at an inoculum size of 3×10^5 and 5×10^5 cells per mouse, respectively. Sarcoma 180 ascites tumor was inoculated intraperitoneally into male dd-strain mice with […] per mouse. Melanotic melanoma B16 was implanted subcutaneously into BDF1 mice with 5×10^5 cells per mouse. Twenty-four hours after the implantation of tumor cells, graded doses of test compounds were administered to mice intraperitoneally in an injection volume of 0.2 ml. per 10 grams of body weight. Test compounds were given once daily for 9 days (qd 1→9 schedule) except for the mice inoculated with Lewis lung carcinoma which were treated for 11 days (qd 1→11). Death or survival of the treated and non-treated (control) animals was recorded daily during the observation period of 45 days after the implantation of tumor cells, and the median survival time was calculated for each of the test (T) and control (C) groups. […] The actual dose giving a T/C of 125% was estimated by linear regression analysis and defined as the effective dose 125 or ED125. The effective dose 150 (ED150) was employed for the evaluation of antitumor effect against Sarcoma 180. In the B16 melanoma experiment the tumor size was measured on day 16 after tumor inoculation, and the dose giving 50% inhibition of tumor growth (ID50) was calculated from regression lines.
(§3) The antitumor therapeutic index was calculated for each derivative from the ratio of toxicity and antitumor activity.

Sarcoma 180 = assay: animal or person; type: in vivo, dd-strain mice; settings: copper-chelated form unless otherwise stated; for Antitumor activity S180 (ED150): ip, once daily 9 days, effective dose 150, survival; for Antitumor therapeutic index S180: single dose LD50/ED150
From the text: as §2, §3

Melanotic melanoma B16 = assay: Antitumor activity in mice, melanotic melanoma B16; type: in vivo, BDF1 mice; settings: copper-chelated form unless otherwise stated; for Antitumor activity B16 (ID50): ip, once daily 9 days, 50% inhibition of tumor growth, day 16, 23040 min; for Antitumor therapeutic index B16: single dose LD50/ID50
From the text: as §2, §3

Lewis lung carcinoma = assay: Antitumor activity in mice, Lewis lung carcinoma; type: in vivo, BDF1 mice; settings: copper-chelated form unless otherwise stated; for Antitumor activity Lewis lung (ED125): ip, once daily 11 days, dose giving T/C survival of 125%; for Antitumor therapeutic index Lewis Lung: single dose LD50/ED125
From the text: as §2, §3

[8] = Acute toxicity, single dose LD50; type: in vivo, dd mice; settings: ip, 30 days observation, copper-chelated form unless otherwise stated
Description: Graded doses of test compounds were administered intraperitoneally to groups of dd mice. The injection was given one time only or once daily for 9 consecutive days. Death or survival of the animals was recorded for 30 days after the last dose of test compound to calculate the single or multiple median lethal dose (LD50).

Row | SMILES | minimum inhibitory concentration (MIC) [1] | minimum inhibitory concentration (MIC) [2] | minimum inhibitory concentration (MIC) [3] | minimum inhibitory concentration (MIC) (Escherichia coli NIHJ) | minimum inhibitory concentration (MIC) (Mycobacterium 607) | minimum inhibitory concentration (MIC) (Proteus mirabilis A9554) | minimum inhibitory concentration (MIC) (Sarcina lutea PCI1001) | minimum inhibitory concentration (MIC) [4] | Antibacterial potency [5] | ILB activity (minimum inducible concentration) [6] | Antitumor activity P388 (ED125) [7] | Antitumor therapeutic index P388 [7] | Antitumor activity S180 (ED150) (Sarcoma 180) | Antitumor therapeutic index S180 (Sarcoma 180) | Antitumor activity B16 (ID50) (Melanotic melanoma B16) | Antitumor therapeutic index B16 (Melanotic melanoma B16) | Antitumor activity Lewis lung (ED125) (Lewis lung carcinoma) | Antitumor therapeutic index Lewis Lung (Lewis lung carcinoma) | LD50 single dose [8]
1 | Cc1c(N)nc(C(CC(N)=O)NCC(N)C(N)=O)nc1C(=O)NC(C(=O)NC(C)C(O)CC(=O)NC(C(=O)NC(OC1OC(C)C(N)C(O)C1O)C(O)c1nc(-c2nc(C(=O)NCCCC(N)CC(=O)NCCC[S+](C)C)cs2)cs1)C(C)O)C(OC1OC(CO)C(O)C(O)C1OC1OC(CO)C(O)C(OC(N)=O)C1O)c1c[nH]cn1 (centres unmarked) [Tallysomycin S2a] | 0.4 | < 0.05 | 6.3 | < 0.05 | < 0.05 | 0.2 | 0.8 | 0.2 | 350 μ/mg | 0.31 µg/mL | > 3.0 mg/kg/day | < 8 | 0.07 mg/kg/day | 357 | 0.17 mg/kg/day | 147 | 0.14 mg/kg/day | 179 | 25 mg/kg/day
2 | Cc1c(N)nc(C(CC(N)=O)NCC(N)C(N)=O)nc1C(=O)NC(C(=O)NC(C)C(O)CC(=O)NC(C(=O)NC(OC1OC(C)C(N)C(O)C1O)C(O)c1nc(-c2nc(C(=O)NCCCNCCO)cs2)cs1)C(C)O)C(OC1OC(CO)C(O)C(O)C1OC1OC(CO)C(O)C(OC(N)=O)C1O)c1c[nH]cn1 (centres unmarked) [Tallysomycin S6b] | 0.8 | 0.02 | 25 | 0.4 | 0.2 | 3.1 | 12.5 | 6.3 | 340 μ/mg | 0.08 µg/mL | 2.2 mg/kg/day | 14 | 0.08 mg/kg/day | 375 | 0.22 mg/kg/day | 136 | 0.17 mg/kg/day | 176 | 30 mg/kg/day
3 | Cc1c(N)nc(C(CC(N)=O)NCC(N)C(N)=O)nc1C(=O)NC(C(=O)NC(C)C(O)CC(=O)NC(C(=O)NC(OC1OC(C)C(N)C(O)C1O)C(O)c1nc(-c2nc(C(=O)NCCCN)cs2)cs1)C(C)O)C(OC1OC(CO)C(O)C(O)C1OC1OC(CO)C(O)C(OC(N)=O)C1O)c1c[nH]cn1 (centres unmarked) [Tallysomycin S1b] | 1.6 | < 0.05 | 12.5 | 0.4 | < 0.05 | 1.6 | 1.6 | 1.6 | 1,000 μ/mg | 0.31 µg/mL | 2.0 mg/kg/day | 10 | 0.11 mg/kg/day | 173 | 0.15 mg/kg/day | 127 | 0.12 mg/kg/day | 158 | 19 mg/kg/day
4 | Cc1c(N)nc(C(CC(N)=O)NCC(N)C(N)=O)nc1C(=O)NC(C(=O)NC(C)C(O)CC(=O)NC(C(=O)NC(OC1OC(C)C(N)C(O)C1O)C(O)c1nc(-c2nc(C(=O)NCCNCCO)cs2)cs1)C(C)O)C(OC1OC(CO)C(O)C(O)C1OC1OC(CO)C(O)C(OC(N)=O)C1O)c1c[nH]cn1 (centres unmarked) [Tallysomycin S9b] | 1.6 | 0.013 | 25 | 0.1 | 0.1 | 0.8 | 0.8 | 0.4 | 380 μ/mg | 0.16 µg/mL | > 3.0 mg/kg/day | < 11 | 0.42 mg/kg/day | 76 | 0.29 mg/kg/day | 110 | 0.41 mg/kg/day | 78 | 32 mg/kg/day
5 | Cc1c(N)nc(C(CC(N)=O)NCC(N)C(N)=O)nc1C(=O)NC(C(=O)NC(C)C(O)CC(=O)NC(C(=O)NC(OC1OC(C)C(N)C(O)C1O)C(O)c1nc(-c2nc(C(=O)NCCCC(N)CC(=O)NCCCNCCO)cs2)cs1)C(C)O)C(OC1OC(CO)C(O)C(O)C1OC1OC(CO)C(O)C(OC(N)=O)C1O)c1c[nH]cn1 (centres unmarked) [Tallysomycin S6a] | 0.2 | 0.03 | 6.3 | 0.4 | 0.4 | 1.6 | 1.6 | 0.8 | 460 μ/mg | 0.02 µg/mL | 0.70 mg/kg/day | 21 | 0.09 mg/kg/day | 167 | 0.12 mg/kg/day | 125 | 0.47 mg/kg/day | 32 | 15 mg/kg/day
